Assay results from patent US10053417B2, “Neprilysin inhibitors” (THERAVANCE BIOPHARMA R&D IP, LLC, priority 2013, dated 2018).

The molecules below were run against T1, human NEP (Homo sapiens, UniProt P08473) (assay: In vitro enzyme inhibition assay, inhibitor potency at human NEP (Assay 1)). Conditions: recombinant human NEP; fluorogenic peptide substrate 10 μM; 37° C.; values given as ranges.
T1 construct: purchased R&D Systems, Minneapolis, Minn; 1182-ZN
Format: biochemical
Experimental: The inhibitory activities of compounds at human and rat neprilysin (EC 3.4.24.11; NEP) and human angiotensin converting enzyme (ACE) were determined using in vitro assays as described below.
Recombinant human NEP and recombinant human ACE were obtained commercially (R&D Systems, Minneapolis, Minn., catalog numbers 1182-ZN and 929-ZN, respectively). The fluorogenic peptide substrate Mca-D-Arg-Arg-Leu-Dap-(Dnp)-OH (Medeiros et al. (1997) Braz. J. Med. Biol. Res. 30:1157-62; Anaspec, San Jose, Calif.) and Abz-Phe-Arg-Lys(Dnp)-Pro-OH (Araujo et al. (2000) Biochemistry 39:8519-8525; Bachem, Torrance, Calif.) were used in the NEP and ACE assays respectively.
The assays were performed in 384-well white opaque plates at 37° C. using the fluorogenic peptide substrates at a concentration of 10 μM in Assay Buffer (NEP: 50 mM HEPES, pH 7.5, 100 mM NaCl, 0.01% polyethylene glycol sorbitan monolaurate (Tween-20), 10 μM ZnSO4; ACE: 50 mM HEPES, pH 7.5, 100 mM NaCl, 0.01% Tween-20, 1 μM ZnSO4).
Test compounds were assayed over the range of concentrations from […] to 20 μM. Test compounds were added to the enzymes and incubated for 30 minute at 37° C. prior to initiating the reaction by the addition of substrate. Reactions were terminated after 20 minutes of incubation at 37° C. by the addition of glacial acetic acid to a final concentration of 3.6% (v/v).
Plates were read on a fluorometer with excitation and emission wavelengths set to 320 nm and 405 nm, respectively. Inhibition constants were obtained by nonlinear regression of the data using the equation (GraphPad Software, Inc., San Diego, Calif.): ν=ν0/[1+(I/K′)] where ν is the reaction rate, ν0 is the uninhibited reaction rate, I is the inhibitor concentration and K′ is the apparent inhibition constant.
Compounds of the invention were tested in this assay and found to have pKi values at human NEP as follows.

T1 sequence (P08473 52-750 limits assumed): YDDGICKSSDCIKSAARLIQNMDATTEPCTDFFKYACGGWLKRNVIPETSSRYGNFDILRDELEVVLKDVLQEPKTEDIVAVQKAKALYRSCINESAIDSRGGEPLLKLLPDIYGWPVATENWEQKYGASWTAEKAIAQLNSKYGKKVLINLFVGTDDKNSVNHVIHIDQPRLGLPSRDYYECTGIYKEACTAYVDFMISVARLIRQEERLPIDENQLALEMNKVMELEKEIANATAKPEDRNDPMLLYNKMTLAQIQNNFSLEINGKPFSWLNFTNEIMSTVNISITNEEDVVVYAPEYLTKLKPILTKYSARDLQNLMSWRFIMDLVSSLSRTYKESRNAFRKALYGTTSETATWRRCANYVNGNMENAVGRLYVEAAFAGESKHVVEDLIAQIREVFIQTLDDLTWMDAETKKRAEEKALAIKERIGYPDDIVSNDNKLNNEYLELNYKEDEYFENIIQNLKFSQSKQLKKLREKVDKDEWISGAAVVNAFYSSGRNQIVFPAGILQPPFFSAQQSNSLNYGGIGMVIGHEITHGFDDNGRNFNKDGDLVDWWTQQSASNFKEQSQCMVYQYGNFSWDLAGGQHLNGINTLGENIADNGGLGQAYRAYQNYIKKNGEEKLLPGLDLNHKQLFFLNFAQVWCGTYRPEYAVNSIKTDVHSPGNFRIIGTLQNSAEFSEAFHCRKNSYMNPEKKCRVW

Compound | Ki [nM]
O=C(NNc1ccc([N+](=O)[O-])cc1[N+](=O)[O-])C(=O)N[C@H](Cc1ccc(-c2cccc(Cl)c2)cc1)C[C@@H](O)C(=O)O [Example 5, (2R,4R)-5-(3′-Chlorobiphenyl-4-yl)-4-{[N′-(2,4-dinitrophenyl)-hydrazinooxalyl]-amino}-2-hydroxypentanoic Acid] | ≤ 1
CNNC(=O)C(=O)N[C@H](Cc1ccc(-c2cccc(Cl)c2)cc1)C[C@@H](O)C(=O)O [Example 6-1, (2R,4R)-5-(3′-Chlorobiphenyl-4-yl)-2-hydroxy-4-[(N′-methylhydrazinooxalyl)-amino]pentanoic acid] | 10 to 31.6
CC(C)CNNC(=O)C(=O)N[C@H](Cc1ccc(-c2cccc(Cl)c2)cc1)C[C@@H](O)C(=O)O [Example 6-2, (2R,4R)-5-(3′-Chlorobiphenyl-4-yl)-2-hydroxy-4-[(N′-isobutylhydrazinooxalyl)-amino]pentanoic acid] | 10 to 31.6
O=C(NNc1ccncc1)C(=O)N[C@H](Cc1ccc(-c2cccc(Cl)c2)cc1)C[C@@H](O)C(=O)O [Example 6-3, (2R,4R)-5-(3′-Chlorobiphenyl-4-yl)-2-hydroxy-4-[(N′-pyridin-4-yl-hydrazino-oxalyl)-amino]pentanoic acid] | 1 to 10
O=C(NNc1cccnc1)C(=O)N[C@H](Cc1ccc(-c2cccc(Cl)c2)cc1)C[C@@H](O)C(=O)O [Example 6-4, (2R,4R)-5-(3′-Chlorobiphenyl-4-yl)-2-hydroxy-4-[(N′-pyridin-3-yl-hydrazino-oxalyl)-amino]pentanoic acid] | 1 to 10
O=C(NNc1cc(O)ncn1)C(=O)N[C@H](Cc1ccc(-c2cccc(Cl)c2)cc1)C[C@@H](O)C(=O)O [Example 6-5, (2R,4R)-5-(3′-Chlorobiphenyl-4-yl)-2-hydroxy-4-{[N′-(6-hydroxy-pyrimidin-4-yl)-hydrazinooxalyl]amino}-pentanoic acid] | 1 to 10
O=C(NNC1=NCCN1)C(=O)N[C@H](Cc1ccc(-c2cccc(Cl)c2)cc1)C[C@@H](O)C(=O)O [Example 6-6, (2R,4R)-5-(3′-Chlorobiphenyl-4-yl)-4-{[N′-(4,5-dihydro-1H-imidazol-2-yl)-hydrazinooxalyl]-amino}-2-hydroxypentanoic acid] | 10 to 31.6
O=C(NNc1ccccc1Cl)C(=O)N[C@H](Cc1ccc(-c2cccc(Cl)c2)cc1)C[C@@H](O)C(=O)O [Example 6-7, (2R,4R)-5-(3′-Chlorobiphenyl-4-yl)-4-{[N′-(2-chloro-phenyl)-hydrazinooxalyl]-amino}-2-hydroxypentanoic acid] | 1 to 10
O=C(NNc1ccccc1F)C(=O)N[C@H](Cc1ccc(-c2cccc(Cl)c2)cc1)C[C@@H](O)C(=O)O [Example 6-8, (2R,4R)-5-(3′-Chlorobiphenyl-4-yl)-4-{[N′-(2-fluoro-phenyl)-hydrazinooxalyl]-amino}-2-hydroxypentanoic acid] | 1 to 10
O=C(NNc1cccc(Cl)c1)C(=O)N[C@H](Cc1ccc(-c2cccc(Cl)c2)cc1)C[C@@H](O)C(=O)O [Example 6-9, (2R,4R)-5-(3′-Chlorobiphenyl-4-yl)-4-{[N′-(3-chloro-phenyl)-hydrazinooxalyl]-amino}-2-hydroxypentanoic acid] | 1 to 10
Cc1ccccc1NNC(=O)C(=O)N[C@H](Cc1ccc(-c2cccc(Cl)c2)cc1)C[C@@H](O)C(=O)O [Example 6-10, (2R,4R)-5-(3′-Chlorobiphenyl-4-yl)-2-hydroxy-4-[(N′-o-tolyl-hydrazinooxalyl)-amino]-pentanoic acid] | 1 to 10
Cc1ccc(NNC(=O)C(=O)N[C@H](Cc2ccc(-c3cccc(Cl)c3)cc2)C[C@@H](O)C(=O)O)cc1 [Example 6-11, (2R,4R)-5-(3′-Chlorobiphenyl-4-yl)-2-hydroxy-4-[(N′-p-tolyl-hydrazinooxalyl)-amino]-pentanoic acid] | 1 to 10
O=C(NNc1ccc(F)cc1)C(=O)N[C@H](Cc1ccc(-c2cccc(Cl)c2)cc1)C[C@@H](O)C(=O)O [Example 6-12, (2R,4R)-5-(3′-Chlorobiphenyl-4-yl)-4-{[N′-(4-fluoro-phenyl)-hydrazinooxalyl]-amino}-2-hydroxypentanoic acid] | 1 to 10
O=C(NNc1ccc(Cl)cc1)C(=O)N[C@H](Cc1ccc(-c2cccc(Cl)c2)cc1)C[C@@H](O)C(=O)O [Example 6-13, (2R,4R)-5-(3′-Chlorobiphenyl-4-yl)-4-{[N′-(4-chloro-phenyl)-hydrazinooxalyl]-amino}-2-hydroxypentanoic acid] | 1 to 10
O=C(NNc1ccc(Br)cc1)C(=O)N[C@H](Cc1ccc(-c2cccc(Cl)c2)cc1)C[C@@H](O)C(=O)O [Example 6-14, (2R,4R)-4-{[N′-(4-Bromophenyl)-hydrazinooxalyl]-amino}-5-(3′-chlorobiphenyl-4-yl)-2-hydroxypentanoic acid] | 1 to 10
COc1ccc(NNC(=O)C(=O)N[C@H](Cc2ccc(-c3cccc(Cl)c3)cc2)C[C@@H](O)C(=O)O)cc1 [Example 6-15, (2R,4R)-5-(3′-Chlorobiphenyl-4-yl)-2-hydroxy-4-{[N′-(4-methoxyphenyl)-hydrazinooxalyl]amino}pentanoic acid] | 1 to 10
Cc1cccc(NNC(=O)C(=O)N[C@H](Cc2ccc(-c3cccc(Cl)c3)cc2)C[C@@H](O)C(=O)O)c1 [Example 6-16, (2R,4R)-5-(3′-Chlorobiphenyl-4-yl)-2-hydroxy-4-[(N′-m-tolylhydrazinooxalyl)-amino]pentanoic acid] | 1 to 10
O=C(NNc1ccccc1)C(=O)N[C@H](Cc1ccc(-c2cccc(Cl)c2)cc1)C[C@@H](O)C(=O)O [Example 6-17, (2R,4R)-5-(3′-Chlorobiphenyl-4-yl)-2-hydroxy-4-[(N′-phenylhydrazinooxalyl)-amino]pentanoic acid] | 1 to 10
O=C(NNC(=O)c1ccccc1O)C(=O)N[C@H](Cc1ccc(-c2cccc(Cl)c2)cc1)C[C@@H](O)C(=O)O [Example 7, (2R,4R)-5-(3′-Chlorobiphenyl-4-yl)-2-hydroxy-4-{2-[N′-(2-hydroxybenzoyl)hydrazino]-2-oxo-acetylamino}pentanoic Acid] | ≤ 1
O=C(NNC(=O)C(=O)N[C@H](Cc1ccc(-c2cccc(Cl)c2)cc1)C[C@@H](O)C(=O)O)OCc1ccccc1 [Example 8-1, (2R,4R)-4-[2-(N′-Benzyloxycarbonyl-hydrazino)-2-oxo-acetylamino]-5-(3′-chloro-biphenyl-4-yl)-2-hydroxypentanoic acid] | 10 to 31.6
O=C(NNC(=O)c1ccc(Cl)nc1)C(=O)N[C@H](Cc1ccc(-c2cccc(Cl)c2)cc1)C[C@@H](O)C(=O)O [Example 8-2, (2R,4R)-5-(3′-Chlorobiphenyl-4-yl)-4-{2-[N′-(6-chloro-pyridine-3-carbonyl)-hydrazino]-2-oxo-acetylamino}-2-hydroxypentanoic acid] | 1 to 10
O=C(NNC(=O)c1cccnc1)C(=O)N[C@H](Cc1ccc(-c2cccc(Cl)c2)cc1)C[C@@H](O)C(=O)O [Example 8-3, (2R,4R)-5-(3′-Chlorobiphenyl-4-yl)-2-hydroxy-4-{2-oxo-2-[N′-(pyridine-3-carbonyl)-hydrazino]acetylamino}pentanoic acid] | 1 to 10
O=C(NNC(=O)c1ccncc1)C(=O)N[C@H](Cc1ccc(-c2cccc(Cl)c2)cc1)C[C@@H](O)C(=O)O [Example 8-4, (2R,4R)-5-(3′-Chlorobiphenyl-4-yl)-2-hydroxy-4-{2-oxo-2-[N′-(pyridine-4-carbonyl)-hydrazino]acetylamino}pentanoic acid] | 1 to 10
O=C(NNC(=O)c1ccco1)C(=O)N[C@H](Cc1ccc(-c2cccc(Cl)c2)cc1)C[C@@H](O)C(=O)O [Example 8-5, (2R,4R)-5-(3′-Chlorobiphenyl-4-yl)-4-{2-[N′-(furan-2-carbonyl)-hydrazino]-2-oxo-acetylamino}-2-hydroxypentanoic acid] | 1 to 10
O=C(NNC(=O)c1ccccc1[N+](=O)[O-])C(=O)N[C@H](Cc1ccc(-c2cccc(Cl)c2)cc1)C[C@@H](O)C(=O)O [Example 8-6, (2R,4R)-5-(3′-Chlorobiphenyl-4-yl)-2-hydroxy-4-{2-[N′-(2-nitro-benzoyl)-hydrazino]-2-oxo-acetylamino}pentanoic acid] | 1 to 10
O=C(N[C@H](Cc1ccc(-c2cccc(Cl)c2)cc1)C[C@@H](O)C(=O)O)C1CCCCO1 (stereo partly drawn) [Example 9, (2R,4R)-5-(3′-Chlorobiphenyl-4-yl)-2-hydroxy-4-[(tetrahydropyran-2-carbonyl)amino]pentanoic Acid] | 1 to 10
O=C(CO)N[C@H](Cc1ccc(-c2cccc(Cl)c2)cc1)C[C@@H](O)C(=O)O [Example 10-1, (2R,4R)-5-(3′-Chlorobiphenyl-4-yl)-2-hydroxy-4-(2-hydroxyacetylamino)-pentanoic acid] | 1 to 10
COCC(=O)N[C@H](Cc1ccc(-c2cccc(Cl)c2)cc1)C[C@@H](O)C(=O)O [Example 10-2, (2R,4R)-5-(3′-Chlorobiphenyl-4-yl)-2-hydroxy-4-(2-methoxyacetylamino)-pentanoic acid] | 1 to 10
